SMILES,boiling point [°C],log10 vapour pressure (mmHg),melting point [°C],ready biodegradability,log10 Koc (L/kg),log10 Koa
CCC(=O)C1CCCCC1,196,–,–,–,–,–
CC(C)(C)C(=O)OC(=O)C(C)(C)C,193,-0.356,–,–,–,–
O=C(O)c1ccc(C(=O)O)c(C(=O)O)c1,–,–,219,–,–,–
Cc1cc(Cl)nc2ccccc12,296,–,59,–,–,–
CC(C)CCCCCCCCCCCO,–,–,10.5,–,–,–
CC(C)(C1CCCCC1)C1CCCCC1,286,–,15.6,–,–,–
ClC=CCCl,–,–,–,not readily biodegradable,–,–
Cc1cc(Br)ccc1Br,236,–,5.6,–,–,–
C=CCC1(CC(C)C)C(=O)NC(=O)NC1=O,–,–,138,–,–,–
O=C(O)c1cc(F)cc(F)c1,–,–,122,–,–,–
O=C(O)CN(CCO)CC(=O)O,–,–,178,–,–,–
CC12CCC(C(Cl)C1=O)C2(C)C (stereo not drawn),–,–,106,–,–,–
SCCCCS,196,–,-53.9,–,–,–
CCN(CC)C(C)=O,186,–,–,–,1.84,–
OCCOCCOCCO,285,–,-7,readily biodegradable,–,–
O=Cc1ccccc1Cl,212,-0.638,12.4,not readily biodegradable,–,–
C=CCOC(=O)CC,124,–,–,–,–,–
C=Cc1ccc(O)cc1,–,-1.85,73.5,–,–,–
C1=CCNC1,90.5,–,–,–,–,–
Nc1ccccc1Cl,209,-0.69,-14,not readily biodegradable,–,–
O=C(O)CCC(=O)Nc1ccccc1,–,–,148,–,–,–
O=c1oc2ccccc2c(O)c1C1CC(c2ccc(OCc3ccc(C(F)(F)F)cc3)cc2)Cc2ccccc21 (stereo not drawn),–,–,167,–,–,–
COc1cc(C)nc(-n2nc(C)cc2OC)n1,–,–,91,–,–,–
CCCCCC#CCO,–,–,-18,–,–,–

SMILES,boiling point [°C],log10 vapour pressure (mmHg),melting point [°C],ready biodegradability,log10 Koc (L/kg),log10 Koa
CC(C)(C)C(C)(C)C,106,1.32,101,–,–,–
CC(C)(C#N)C#N,170,0.16,31.5,–,–,–
OCCCCCC(F)(F)F,166,–,–,–,–,–
CCOC(=O)C(=O)Nc1ccccc1,280,–,65.5,–,–,–
CCCCCC#N,164,0.455,-80.3,–,–,4.08
Cc1ccccc1C=Cc1ccccc1C,–,–,83,–,–,–
CCC1=CCCC1,106,–,-118,–,–,–
OCCOCCOCCOCCO,328,-4.33,–,–,–,–
CC1(c2ccc(Oc3ccccc3)cc2)OC(=O)N(Nc2ccccc2)C1=O (stereo not drawn),–,-8.32,141,–,–,–
C1CCC2C(C1)CCC1C3CCCCC3CCC21 (stereo not drawn),353,–,115,–,–,–
O=Nc1ccc(Nc2ccccc2)cc1,292,–,143,not readily biodegradable,–,–
CC(C)(C)c1cc(C(C)(C)c2ccc(O)c(C(C)(C)C)c2)ccc1O,–,–,114,–,–,–
O=C(O)c1ccc(O)c(Cl)c1,–,–,171,not readily biodegradable,–,–
CC(CO)(CO)C(=O)O,–,–,190,–,–,–
COc1ccc([N+](=O)[O-])cc1N,–,–,118,–,–,–
O=c1cc(O)cc[nH]1,–,–,278,–,–,–
Cc1cc(=O)n(-c2ccccc2)n1C,319,–,114,–,–,–
CC(C)CC1CCCC1,148,–,-115,–,–,–
CCOC(=O)c1nc(C(Cl)(Cl)Cl)n(-c2ccc(Cl)cc2Cl)n1,–,-8.18,110,–,–,–
C=COCCCCCCCCCC,–,–,-41,–,–,–
CS/C(C)=N/OC(=O)N(C)SN(C)C(=O)O/N=C(\C)SC,–,-4.15,173,–,2.54,–
C[C@H](N)[C@H](O)c1cccc(O)c1,218,–,108,–,–,–
Cc1ccc(C(=O)NS(=O)(=O)c2ccc(N)cc2)cc1C,–,–,222,–,–,–

# — the OPERA property sets (Mansouri et al. 2018)
